This is an account of results in ChEMBL document CHEMBL5465560, “Selectivity Literature for EUbOPEN Chemogenomic Library” (2024).

The target of assay [1] is T1, Ephrin type-A receptor 3 (Homo sapiens) (UniProt P29320).
T1 sequence (whole entry): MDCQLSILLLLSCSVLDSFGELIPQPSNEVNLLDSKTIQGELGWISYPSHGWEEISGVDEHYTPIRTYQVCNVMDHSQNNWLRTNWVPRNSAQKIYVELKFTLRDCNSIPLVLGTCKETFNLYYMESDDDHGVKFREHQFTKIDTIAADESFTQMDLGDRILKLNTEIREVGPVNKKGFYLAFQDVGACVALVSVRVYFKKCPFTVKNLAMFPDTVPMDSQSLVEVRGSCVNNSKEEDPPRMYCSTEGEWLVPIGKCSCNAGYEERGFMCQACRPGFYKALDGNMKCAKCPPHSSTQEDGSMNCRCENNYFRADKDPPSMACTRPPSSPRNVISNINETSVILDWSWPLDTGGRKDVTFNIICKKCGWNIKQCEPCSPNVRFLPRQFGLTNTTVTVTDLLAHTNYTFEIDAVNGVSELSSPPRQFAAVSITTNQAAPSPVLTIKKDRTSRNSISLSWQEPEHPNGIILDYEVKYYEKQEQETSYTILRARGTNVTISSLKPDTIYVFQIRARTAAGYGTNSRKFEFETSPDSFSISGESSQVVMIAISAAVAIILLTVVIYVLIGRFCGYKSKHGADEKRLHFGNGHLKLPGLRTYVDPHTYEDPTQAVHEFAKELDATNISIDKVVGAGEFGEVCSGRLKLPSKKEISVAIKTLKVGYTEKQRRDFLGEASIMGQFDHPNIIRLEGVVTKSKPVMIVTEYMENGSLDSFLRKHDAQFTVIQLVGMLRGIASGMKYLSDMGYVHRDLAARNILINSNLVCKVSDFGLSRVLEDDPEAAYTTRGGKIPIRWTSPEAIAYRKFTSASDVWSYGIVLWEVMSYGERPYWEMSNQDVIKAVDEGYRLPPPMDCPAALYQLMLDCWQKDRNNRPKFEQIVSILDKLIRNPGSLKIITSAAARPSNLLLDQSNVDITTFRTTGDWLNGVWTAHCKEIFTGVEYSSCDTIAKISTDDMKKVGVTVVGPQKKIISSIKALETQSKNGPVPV
In words: Selectivity interaction (ProQinase) EUB0000171b EPHA3.

The target of assay [2] is T2, Serine/threonine-protein kinase RIO1 (Homo sapiens) (UniProt Q9BRS2).
T2 sequence (whole entry): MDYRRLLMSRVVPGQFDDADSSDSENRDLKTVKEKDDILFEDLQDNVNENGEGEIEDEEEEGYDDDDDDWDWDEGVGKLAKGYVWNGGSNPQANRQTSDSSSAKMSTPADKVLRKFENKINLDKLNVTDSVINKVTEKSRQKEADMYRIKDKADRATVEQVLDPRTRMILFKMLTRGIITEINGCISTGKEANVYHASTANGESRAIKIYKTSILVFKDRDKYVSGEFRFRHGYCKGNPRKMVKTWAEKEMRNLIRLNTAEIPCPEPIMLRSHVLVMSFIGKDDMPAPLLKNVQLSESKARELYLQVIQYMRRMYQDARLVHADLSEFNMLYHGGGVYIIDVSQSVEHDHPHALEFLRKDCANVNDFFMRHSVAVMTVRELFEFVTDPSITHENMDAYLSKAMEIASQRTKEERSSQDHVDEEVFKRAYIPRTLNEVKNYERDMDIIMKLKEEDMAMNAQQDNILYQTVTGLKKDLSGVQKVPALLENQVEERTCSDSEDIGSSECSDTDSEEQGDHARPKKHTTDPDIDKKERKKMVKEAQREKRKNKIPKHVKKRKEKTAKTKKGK
In words: Selectivity interaction (Kinase panel (DSF assay)) EUB0001558a RIOK1. A general note: Differential scanning fluorimetry follows unfolding on heating by fluorescence.

Assay [3] has as its target Casein kinase II subunit alpha' (Homo sapiens) (UniProt P19784). In words: Selectivity interaction (KinomeScan (DiscoverX)) EUB0000666a CSNK2A2. The conditions noted are these: at 10 µM.
Assay [4] has as its target T3, Ephrin type-A receptor 1 (Homo sapiens) (UniProt P21709).
T3 sequence (whole entry): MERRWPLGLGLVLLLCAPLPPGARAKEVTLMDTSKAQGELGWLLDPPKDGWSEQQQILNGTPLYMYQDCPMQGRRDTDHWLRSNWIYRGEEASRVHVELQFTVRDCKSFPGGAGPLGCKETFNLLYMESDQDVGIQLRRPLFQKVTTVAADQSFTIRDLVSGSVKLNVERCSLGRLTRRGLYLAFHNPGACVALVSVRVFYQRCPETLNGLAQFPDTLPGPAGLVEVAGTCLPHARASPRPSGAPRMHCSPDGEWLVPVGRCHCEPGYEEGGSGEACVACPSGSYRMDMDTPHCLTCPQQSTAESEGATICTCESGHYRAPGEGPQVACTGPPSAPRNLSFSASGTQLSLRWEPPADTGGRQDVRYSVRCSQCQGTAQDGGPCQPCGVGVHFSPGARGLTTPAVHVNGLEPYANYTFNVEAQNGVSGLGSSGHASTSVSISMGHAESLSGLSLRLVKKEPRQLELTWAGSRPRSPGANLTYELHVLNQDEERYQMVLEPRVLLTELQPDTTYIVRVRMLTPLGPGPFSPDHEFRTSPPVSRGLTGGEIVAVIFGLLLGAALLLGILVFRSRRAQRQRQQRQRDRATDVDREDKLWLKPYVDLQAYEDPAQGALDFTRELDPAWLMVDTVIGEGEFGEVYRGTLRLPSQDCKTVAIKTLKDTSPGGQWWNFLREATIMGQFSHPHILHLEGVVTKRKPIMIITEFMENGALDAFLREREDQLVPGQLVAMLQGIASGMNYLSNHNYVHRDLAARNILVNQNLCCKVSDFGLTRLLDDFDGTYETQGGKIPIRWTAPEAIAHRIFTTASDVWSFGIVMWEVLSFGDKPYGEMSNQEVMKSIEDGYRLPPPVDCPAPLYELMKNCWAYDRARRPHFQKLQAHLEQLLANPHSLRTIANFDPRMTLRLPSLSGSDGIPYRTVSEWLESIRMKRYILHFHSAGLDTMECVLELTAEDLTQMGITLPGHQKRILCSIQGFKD
In words: Selectivity interaction (KinomeScan (DiscoverX)) EUB0000595a EPHA1. As to conditions: at 10 µM.

Casein kinase II subunit alpha' (Homo sapiens), sequence (P19784 whole entry, looked up): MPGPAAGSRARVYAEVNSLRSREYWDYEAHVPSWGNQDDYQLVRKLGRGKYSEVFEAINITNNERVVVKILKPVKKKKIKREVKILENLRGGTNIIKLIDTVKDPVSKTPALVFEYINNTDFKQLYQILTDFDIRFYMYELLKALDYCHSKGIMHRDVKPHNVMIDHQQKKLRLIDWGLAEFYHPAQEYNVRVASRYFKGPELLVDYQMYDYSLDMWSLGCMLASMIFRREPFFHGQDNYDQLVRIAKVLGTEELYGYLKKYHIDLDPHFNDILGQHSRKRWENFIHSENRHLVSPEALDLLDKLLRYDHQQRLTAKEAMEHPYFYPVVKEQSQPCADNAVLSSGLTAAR

`C=CC(=O)Nc1cccc(C(=O)Nc2ccc(Nc3cc(-c4[nH]c(SC)nc4C)ccn3)cc2)c1`: the % of control turned out to be 98% in assay [1] (at 1 µM) and 89% in assay [1] (at 5 µM).
Consider `CC(C)(O)[C@H](F)CN1Cc2cc(NC(=O)c3cnn4cccnc34)c(N3CCOCC3)cc2C1=O`, for which, in assay [2], the dTM is -0.3 K.
Consider `O=C(NOC[C@H](O)CO)c1ccc(F)c(F)c1Nc1ccc(I)cc1F`, for which the % of control in assay [3] amounted to 100%.
Regarding `COCC(=O)NC/C=C/c1ccc2ncnc(Nc3ccc(Oc4ccc(C)nc4)c(C)c3)c2c1` [CP-724714], the % of control in assay [4] is 88%.
